Measurements: patent publication US11883387B2, “PqsR inverse agonists” (HELMHOLTZ-ZENTRUM FÜR INFEKTIONSFORSCHUNG GMBH, priority 2018, dated 2024)

How the values were obtained:
[1] = test system: P. aeruginosa pyocyanin production; assay: Pyocyanin assay; type: cell-based, P. aeruginosa PA14; conditions: Pseudomonas aeruginosa, PA14, 16 h, read-out: IC50-value towards pyocyanin production, PA14 in PPGAS medium, 16 h
Protocol: Inhibition of P. aeruginosa pyocyanin production by compounds was determined photometrically as described before.[20] In short, an overnight culture of PA14 in PPGAS medium was washed, diluted in medium to a start OD600 of 0.02, and incubated for 16 h (37° C., 200 rpm, relative humidity 75%) in the presence of test compounds. Then, cultures were extracted with chloroform and re-extracted with 0.2 M HCl. Protonated red colored pyocyanin was determined by measuring OD520 and normalizing to OD600.

PqsR = PqsR (Pseudomonas aeruginosa, UniProt Q9I4X0); assay: E. coli based β-galactosidase reporter gene assay (PqsR inverse agonistic activity); type: cell-based; design: expressed in transfected cells; host or cells: Escherichia coli DH5α
Protocol: Inhibition of pqsR-dependent gene expression of test compounds was determined in an E. coli based β-galactosidase reporter gene assay.[19] Escherichia coli DH5α was transfected with pEAL08-2 plasmid encoding pqsR under control of promoter tac and β-galactosidase reporter gene lacZ under control of promoter pqsA. Antagonistic effects of compounds were evaluated in the presence of/in competition to 50 nM PQS. A positive control was used to ensure the reliability of individual assays. First, PQS was diluted in methanol and added to the wells of a glass coated 96-deep-well plate, and the solvent was evaporated. Then, compounds were added in 5 μL DMSO to final concentrations of 0.001-10 μM. Overnight cultures of E. coli DH5a×pEAL08-2 were diluted 1:100 in LB medium with ampicillin (50 μg/ml) and incubated at 37° C. with shaking until it reached an OD600 of 0.2. Finally, 995 μL of culture was added to each well and the p-galactosidase activity was determined by ortho-nitrophenyl-p-galactoside conversion in permeabilized cells after a 2.5 h incubation period (37° C., 180 rpm). OD600, OD420, and OD550 were measured using POLARstar Omega (BMG Labtech, Ortenberg, Germany), and the activity was expressed as ratio of the slope of β-galactosidase activity between basal control (no PQS) and solvent control. IC50 values of antagonists were determined by variation of the concentration of the test compounds.

PqsR, sequence (Q9I4X0 whole entry): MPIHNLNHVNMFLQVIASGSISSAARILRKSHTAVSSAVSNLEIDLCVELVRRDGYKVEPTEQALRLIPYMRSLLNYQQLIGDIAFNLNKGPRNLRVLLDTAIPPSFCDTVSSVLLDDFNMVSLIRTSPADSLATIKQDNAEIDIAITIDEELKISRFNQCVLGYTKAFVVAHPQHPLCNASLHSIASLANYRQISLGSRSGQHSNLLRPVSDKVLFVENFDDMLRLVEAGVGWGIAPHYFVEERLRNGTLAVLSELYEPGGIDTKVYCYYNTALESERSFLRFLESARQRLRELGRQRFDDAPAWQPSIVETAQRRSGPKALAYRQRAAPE

| Structure (SMILES) | IC50 [1] [nM] | IC50 (PqsR) [nM] |
| --- | --- | --- |
| FC(F)(F)c1cc(NCc2cn(-c3ccc(Cl)c(Cl)c3)nn2)ccn1 [Compound 005, N-((1-(3,4-Dichlorophenyl)-1H-1,2,3-triazol-4-yl)methyl)-2-(trifluoromethyl)pyridin-4-amine] | 251 to 1000 | ≤ 50 |
| COc1ccc(-n2cc(CNc3ccnc(C(F)(F)F)c3)nn2)cc1 [Compound 006, N-((1-(4-Methoxyphenyl)-1H-1,2,3-triazol-4-yl)methyl)-2-(trifluoromethyl)pyridin-4-amine] | 1000 to 5000 | 51 to 250 |
| CSc1ccc(-n2cc(CNc3ccnc(C(F)(F)F)c3)nn2)cc1 [Compound 016, N-((1-(4-(methylthio)phenyl)-1H-1,2,3-triazol-4-yl)methyl)-2-(trifluoromethyl)pyridin-4-amine] | 1000 to 5000 | ≤ 50 |
| FC(F)(F)c1cc(NCc2cn(-c3ccc(Nc4ccccc4)cc3)nn2)ccn1 [Compound 018, N-((1-(4-(Phenylamino)phenyl)-1H-1,2,3-triazol-4-yl)methyl)-2-(trifluoromethyl)pyridin-4-amine] | 251 to 1000 | ≤ 50 |
| FC(F)(F)c1cncc(NCc2cn(-c3ccc(Oc4ccccc4)cc3)nn2)c1 [Compound 021, N-((1-(4-phenoxyphenyl)-1H-1,2,3-triazol-4-yl)methyl)-5-(trifluoromethyl)pyridin-3-amine] | 1000 to 5000 | ≤ 50 |
| FC(F)(F)c1cc(NCc2cn(-c3ccc(Cc4ccncc4)cc3)nn2)ccn1 [Compound 025, N-((1-(4-(Pyridin-4-ylmethyl)phenyl)-1H-1,2,3-triazol-4-yl)methyl)-2-(trifluoromethyl)pyridin-4-amine] | 251 to 1000 | ≤ 50 |
| COc1ccc(-n2cc(CNc3ccnc(C(F)(F)F)c3)nn2)cc1F [Compound 026, N-((1-(3-Fluoro-4-methoxyphenyl)-1H-1,2,3-triazol-4-yl)methyl)-2-(trifluoromethyl)pyridin-4amine] | 1000 to 5000 | ≤ 50 |
| Clc1cc(NCc2cn(-c3ccc(Oc4ccccc4)cc3)nn2)ccn1 [Compound 049, 2-Chloro-N-((1-(4-phenoxyphenyl)-1H-1,2,3-triazol-4-yl)methyl)pyridin-4-amine] | 251 to 1000 | ≤ 50 |
| N#Cc1cc(NCc2cn(-c3ccc(Oc4ccccc4)cc3)nn2)cc(C#N)n1 [Compound 052, 4-(((1-(4-Phenoxyphenyl)-1H-1,2,3-triazol-4-yl)methyl)amino)pyridine-2,6-dicarbonitrile] | ≤ 250 | ≤ 50 |
| FC(F)(F)c1cc(NCc2cn(-c3ccc(Oc4ccccc4)c(Cl)c3)nn2)ccn1 [Compound 053, N-((1-(3-Chloro-4-phenoxyphenyl)-1H-1,2,3-triazol-4-yl)methyl)-2-(trifluoromethyl)pyridin-4-amine] | ≤ 250 | ≤ 50 |
| FC(F)(F)c1nccc(SCc2cn(-c3ccc(Oc4ccccc4)cc3)nn2)n1 [Compound 061, 4-(((1-(4-phenoxyphenyl)-1H-1,2,3-triazol-4-yl)methyl)thio)-2-(trifluoromethyl)pyrimidine] | 251 to 1000 | ≤ 50 |
| FC(F)(F)Oc1ccc(-n2cc(CSc3ccnc(C(F)(F)F)c3)nn2)cc1Cl [Compound 063, 4-(((1-(3-chloro-4-(trifluoromethoxy)phenyl)-1H-1,2,3-triazol-4-yl)methyl)thio)-2-(trifluoromethyl)pyridine] | 1000 to 5000 | 51 to 250 |
| Nc1cc(SCc2cn(-c3ccc(Oc4ccccc4)cc3)nn2)nc(C(F)(F)F)n1 [Compound 065, 6-(((1-(4-phenoxyphenyl)-1H-1,2,3-triazol-4-yl)methyl)thio)-2-(trifluoromethyl)pyrimidin-4-amine] | ≤ 250 | ≤ 50 |
| CC(C)Oc1ccc(-c2ncc(CNc3ccnc(C#N)c3)s2)cc1Cl [Compound 091, 4-(((2-(3-Chloro-4-isopropoxyphenyl)thiazol-5-yl)methyl)amino)picolinonitrile] | ≤ 250 | ≤ 50 |
| Fc1cccc(Oc2ccc3[nH]c(CSc4ccnc(C(F)(F)F)c4)nc3c2)c1 [Compound 130, 5-(3-Fluorophenoxy)-2-(((2-(trifluoromethyl)pyridin-4-yl)thio)methyl)-1H-benzo[d]imidazole] | – | ≤ 50 |
| FC(F)(F)c1cc(OCc2nc3ccc(Oc4ccccc4)cc3o2)ccn1 [Compound 133, 6-Phenoxy-2-(((2-(trifluoromethyl)pyridin-4-yl)oxy)methyl)benzo[d]oxazole] | – | 251 to 1000 |

| Structure (SMILES) | IC50 [1] [nM] | IC50 (PqsR) [nM] |
| --- | --- | --- |
| FC(F)(F)c1cc(SCc2ccn(-c3ccc(Cl)cc3)n2)ccn1 [Compound 135, 4-(((1-(4-chlorophenyl)-1H-pyrazol-3-yl)methyl)thio)-2-(trifluoromethyl)-pyridine] | – | 251 to 1000 |
| FC(F)(F)c1cc(SCc2nnc(-c3ccc(Cl)cc3)o2)ccn1 [Compound 136, 2-(4-Chlorophenyl)-5-(((2-(trifluoromethyl)pyridin-4-yl)thio)methyl)-1,3,4-oxadiazole] | – | 251 to 1000 |
| FC(F)(F)c1cc(SCc2nc(-c3ccc(Cl)cc3)no2)ccn1 [Compound 137, 3-(4-Chlorophenyl)-5-(((2-(trifluoromethyl)pyridin-4-yl)thio)methyl)-1,2,4-oxadiazole] | – | 251 to 1000 |
| FC(F)(F)c1cc(SCc2nnn(-c3ccc(Cl)cc3)n2)ccn1 [Compound 138, 4-(((2-(4-Chlorophenyl)-2H-tetrazol-5-yl)methyl)thio)-2-(trifluoromethyl)pyridine] | – | 251 to 1000 |
| CC(C)Oc1ccc(-n2cc(CNc3cc(Cl)nc(C(F)(F)F)c3)nn2)cc1 [Compound 140, 2-chloro-N-((1-(4-isopropoxyphenyl)-1H-1,2,3-triazol-4-yl)methyl)-6-(trifluoromethyl)pyridin-4-amine] | ≤ 250 | – |
| Fc1cccc2c1cnn2-c1ccc(-n2cc(CNc3cc(Cl)nc(C(F)(F)F)c3)nn2)cc1 [Compound 146, 2-chloro-N-((1-(4-(4-fluoro-1H-indazol-1-yl)phenyl)-1H-1,2,3-triazol-4-yl)methyl)-6-(trifluoromethyl)pyridin-4-amine] | 251 to 1000 | – |
| FC(F)(F)c1cc(NCc2cn(-c3ccc(-n4ncc5ncccc54)cc3)nn2)ccn1 [Compound 149, N-((1-(4-(1H-pyrazolo[4,3-b]pyridin-1-yl)phenyl)-1H-1,2,3-triazol-4-yl)methyl)-2-(trifluoromethyl)pyridin-4-amine] | – | ≤ 50 |
| FC(F)(F)c1cc(NCc2cn(-c3ccc(-n4ncc5ccccc54)cc3)nn2)cc(Cl)n1 [Compound 150, N-((1-(4-(1H-indazol-1-yl)phenyl)-1H-1,2,3-triazol-4-yl)methyl)-2-chloro-6-(trifluoromethyl)pyridin-4-amine] | 251 to 1000 | – |
| FC(F)(F)c1cc(NCc2cn(-c3ccc(-n4ncc5ccncc54)cc3)nn2)cc(Cl)n1 [Compound 151, N-((1-(4-(1H-pyrazolo[3,4-c]pyridin-1-yl)phenyl)-1H-1,2,3-triazol-4-yl)methyl)-2-chloro-6-(trifluoromethyl)pyridin-4-amine] | 251 to 1000 | – |
| CC(C)Oc1ccc(-c2ncc(CNc3cc(C#N)nc(C(F)(F)F)c3)s2)cc1 [Compound 163, 4-(((2-(4-Isopropoxyphenyl)thiazol-5-yl)methyl)amino)-6-(trifluoromethyl)picolinonitrile] | ≤ 250 | – |
| Fc1ccccc1Oc1ccc(-c2ncc(CNc3cc(Cl)nc(C(F)(F)F)c3)cn2)cc1 [Compound 167, 2-chloro-N-((2-(4-(2-fluorophenoxy)phenyl)pyrimidin-5-yl)methyl)-6-(trifluoromethyl)pyridin-4-amine] | ≤ 250 | – |
| CC(C)Oc1ccc(-c2ncc(CNc3cc(Cl)nc(C(F)(F)F)c3)cn2)cc1 [Compound 168, 2-chloro-N-((2-(4-isopropoxyphenyl)pyrimidin-5-yl)methyl)-6-(trifluoromethyl)pyridin-4-amine] | ≤ 250 | – |
| O=[N+]([O-])c1cc(-c2ncc(CNc3cc(Cl)nc(C(F)(F)F)c3)cn2)ccc1Cl [Compound 169, 2-chloro-N-((2-(4-chloro-3-nitrophenyl)pyrimidin-5-yl)methyl)-6-(trifluoromethyl)pyridin-4-amine] | ≤ 250 | – |
| Fc1cccc(Oc2ccc3[nH]c(CSc4ccnc(C(F)(F)F)c4)nc3c2)c1 [Compound 170, 5-(3-fluorophenoxy)-2-(((2-(trifluoromethyl)pyridin-4-yl)thio)methyl)-1H-benzo[d]imidazole] | ≤ 250 | – |
| Nc1cc(SCc2nc3cc(Oc4cccc(F)c4)ccc3[nH]2)nc(C(F)(F)F)n1 [Compound 171, 6-(((5-(3-fluorophenoxy)-1H-benzo[d]imidazol-2-yl)methyl)thio)-2-(trifluoromethyl)pyrimidin-4-amine] | ≤ 250 | – |
